Here are results for 32 molecules from patent US20090105266A1, “Organic compounds” (priority 2007, published 2009).

Structures are written as SMILES.

As usually defined, the inhibition is the change of the read-out against control, counted positive when it falls.

T1 sequence (P41594 21-1180 isoform P41594-2 limits assumed): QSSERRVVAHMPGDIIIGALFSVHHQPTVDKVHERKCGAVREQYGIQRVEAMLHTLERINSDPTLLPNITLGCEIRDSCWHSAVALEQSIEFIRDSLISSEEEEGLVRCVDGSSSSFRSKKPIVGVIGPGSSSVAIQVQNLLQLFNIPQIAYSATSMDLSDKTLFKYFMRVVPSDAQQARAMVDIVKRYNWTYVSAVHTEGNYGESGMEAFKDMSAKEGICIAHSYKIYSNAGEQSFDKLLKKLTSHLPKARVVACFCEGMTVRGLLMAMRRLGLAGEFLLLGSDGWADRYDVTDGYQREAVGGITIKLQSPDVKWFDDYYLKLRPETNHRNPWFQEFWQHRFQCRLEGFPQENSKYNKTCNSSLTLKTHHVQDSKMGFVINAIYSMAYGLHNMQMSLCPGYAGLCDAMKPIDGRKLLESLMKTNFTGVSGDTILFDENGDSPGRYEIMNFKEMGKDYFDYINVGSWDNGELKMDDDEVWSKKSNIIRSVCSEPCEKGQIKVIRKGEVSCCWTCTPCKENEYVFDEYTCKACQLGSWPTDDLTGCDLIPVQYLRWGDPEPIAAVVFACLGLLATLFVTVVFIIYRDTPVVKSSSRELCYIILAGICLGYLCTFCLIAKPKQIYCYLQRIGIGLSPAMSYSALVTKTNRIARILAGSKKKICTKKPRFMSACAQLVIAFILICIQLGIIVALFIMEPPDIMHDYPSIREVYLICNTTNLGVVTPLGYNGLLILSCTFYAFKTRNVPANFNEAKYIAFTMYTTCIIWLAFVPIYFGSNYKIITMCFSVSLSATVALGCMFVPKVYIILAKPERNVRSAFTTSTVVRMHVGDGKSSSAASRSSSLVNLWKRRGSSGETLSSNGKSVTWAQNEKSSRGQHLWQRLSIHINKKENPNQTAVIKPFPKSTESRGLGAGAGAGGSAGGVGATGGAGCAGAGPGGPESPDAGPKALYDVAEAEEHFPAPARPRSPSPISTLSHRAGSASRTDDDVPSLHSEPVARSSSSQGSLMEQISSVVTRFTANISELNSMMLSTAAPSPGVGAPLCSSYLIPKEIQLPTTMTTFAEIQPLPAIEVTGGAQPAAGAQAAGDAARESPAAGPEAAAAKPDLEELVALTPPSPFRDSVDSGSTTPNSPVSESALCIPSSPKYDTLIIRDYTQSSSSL

This assay concerns the target T1, mGluR5 (Homo sapiens, UniProt P41594).
T1 construct: expressed in transfected cells
Put plainly: inhibition of the glutamate (agonist) induced elevation of the inositol phosphate turnover. The conditions noted are these: inhibition of glutamate induced elevation of inositol phosphate turnover at 0.1 μM. The format is cell-based. The source says: This can be determined in vitro for example at recombinant human metabotropic glutamate receptors, especially PLC-coupled subtypes thereof such as mGluR5, using different procedures like, for example, measurement of the inhibition of the agonist induced elevation of intracellular Ca^2+ concentration in accordance with L. P. Daggett et al., Neuropharm. Vol. 34, pages 871-886 (1995), P. J. Flor et al., J. Neurochem. Vol. 67, pages 58-63 (1996) or by determination to what extent the agonist induced elevation of the inositol phosphate turnover is inhibited as described by T. Knoepfel et al., Eur. J. Pharmacol. Vol. 288, pages 389-392 (1994), L. P. Daggett et al., Neuropharm. Vol. 67, pages 58-63 (1996) and references cited therein. Isolation and expression of human mGluR subtypes are described in U.S. Pat. No. 5,521,297. Selected agents of the invention show IC50 values for the inhibition of the agonist (e.g. glutamate or quisqualate) induced elevation of intracellular Ca2+ concentration or the agonist (e.g. glutamate or quisqualate) induced inositol phosphate turnover, measured in recombinant cells expressing hmGluR^5a of about 0.1 nM to about 50 μM.
Activity of compounds of the present invention was examined by determination to what extent the agonist induced elevation of the inositol phosphate turnover is inhibited as described by T. Knoepfel et al., Eur. J. Pharmacol. Vol. 288, pages 389-392 (1994), L. P. Daggett et al., Neuropharm. Vol. 67, pages 58-63 (1996) and references cited therein.
The table below represents percentages of inhibition of the glutamate induced elevation of the inositol phosphate turnover at a concentration of 0.1 μM.
Turning to `CCCn1c(-c2cnc(Nc3ccc(N(C)C)nc3)c(Cl)c2)nc2ccc(F)cc21` [Example 68, N-5-[3-Chloro-5-(6-fluoro-1-propyl-1H-benzoimidazol-2-yl)-pyridin-2-yl]-N-2,N-2-dimethyl-pyridine-2,5-diamine], the “mGluR5-activity in [%] inhibition at 0.1 μM” value is given as 43%. As to `CCCn1c(-c2cnc(Nc3ccc(N(C)C)nc3)c(Cl)c2)nc2ccccc21` [Example 69, N-5-[3-Chloro-5-(1-propyl-1H-benzoimidazol-2-yl)-pyridin-2-yl]-N2,N-2-dimethyl-pyridine-2,5-diamine], the “mGluR5-activity in [%] inhibition at 0.1 μM” value is reported as 32%. Turning to `CCCn1c(-c2cnc(Nc3ccc(N(C)C)nc3)c(Cl)c2)nc2cccc(Cl)c21` [Example 70, N-5-[3-Chloro-5-(7-chloro-1-propyl-1H-benzoimidazol-2-yl)-pyridin-2-yl]-N2,N-2-dimethyl-pyridine-2,5-diamine], the “mGluR5-activity in [%] inhibition at 0.1 μM” value is reported as 90%.

Take `CCCn1c(-c2cnc(Nc3ccc(NC(C)=O)nc3)c(Cl)c2)nc2ccc(F)cc21` [Example 71, N-{5-[3-Chloro-5-(6-fluoro-1-propyl-1H-benzoimidazol-2-yl)-pyridin-2-ylamino]-pyridin-2-yl}-acetamide]: the inhibition at 0.1 µM is 20%. For the molecule `CCCn1c(-c2cnc(Nc3ccc(N)nc3)c(Cl)c2)nc2ccc(F)cc21` [Example 71b, N-5-[3-Chloro-5-(6-fluoro-1-propyl-1H-benzoimidazol-2-yl)-pyridin-2-yl]-pyridine-2,5-diamine], the “mGluR5-activity in [%] inhibition at 0.1 μM” value is recorded as 100%. As to `CCCn1c(-c2cnc(Nc3cnccn3)c(Cl)c2)nc2cccc(Cl)c21` [Example 72, [3-Chloro-5-(7-chloro-1-propyl-1H-benzoimidazol-2-yl)-pyridin-2-yl]-pyrazin-2-yl-amine], the inhibition at 0.1 µM turned out to be 96%. Take `CCCn1c(-c2cnc(Nc3cc(C)no3)c(Cl)c2)nc2cccc(Cl)c21` [Example 73, [3-Chloro-5-(7-chloro-1-propyl-1H-benzoimidazol-2-yl)-pyridin-2-yl]-(3-methyl-isoxazol-5-yl)-amine]: the inhibition at 0.1 µM was determined as 98%. The same measure, in the same setting: then `CCCn1c(-c2cnc(Nc3ccc(OC)nc3)c(Cl)c2)nc2cccc(Cl)c21` [Example 74, [3-Chloro-5-(7-chloro-1-propyl-1H-benzoimidazol-2-yl)-pyridin-2-yl]-(6-methoxy-pyridin-3-yl)-amine], with 99%; and `CCCn1c(-c2cnc(Nc3ccc(OC)cc3)c(Cl)c2)nc2cccc(Cl)c21` [Example 75, [3-Chloro-5-(7-chloro-1-propyl-1H-benzoimidazol-2-yl)-pyridin-2-yl]-(4-methoxy-phenyl)-amine], with 99%.

Turning to `CCCn1c(-c2cnc(Nc3ccc(C#N)nc3)c(Cl)c2)nc2cccc(Cl)c21` [Example 75b, 5-[3-Chloro-5-(7-chloro-1-propyl-1H-benzoimidazol-2-yl)-pyridin-2-ylamino]-pyridine-2-carbonitrile], the inhibition at 0.1 µM amounted to 99%. On to `CCCn1c(-c2cnc(Nc3ccc(NC(C)=O)nc3)c(Cl)c2)nc2cccc(Cl)c21` [Example 75c, N-{5-[3-Chloro-5-(7-chloro-1-propyl-1H-benzoimidazol-2-yl)-pyridin-2-ylamino]-pyridin-2-yl}-acetamide], for which the inhibition at 0.1 µM is 100%.

Regarding `CCCn1c(-c2cnc(Nc3ccc(C(=O)OC)nc3)c(Cl)c2)nc2cccc(Cl)c21` [Example 75d, 5-[3-Chloro-5-(7-chloro-1-propyl-1H-benzoimidazol-2-yl)-pyridin-2-ylamino]-pyridine-2-carboxylic acid methyl ester], the inhibition at 0.1 µM was determined as 100%.

With `CCCn1c(-c2cnc(Nc3ccc(N)nc3)c(Cl)c2)nc2cccc(Cl)c21` [Example 75e, N-5-[3-Chloro-5-(7-chloro-1-propyl-1H-benzoimidazol-2-yl)-pyridin-2-yl]-pyridine-2,5-diamine], the “mGluR5-activity in [%] inhibition at 0.1 μM” value was 100%. For `CCCn1c(-c2cnc(Nc3ccc(CO)nc3)c(Cl)c2)nc2cccc(Cl)c21` [Example 75f, {5-[3-Chloro-5-(7-chloro-1-propyl-1H-benzoimidazol-2-yl)-pyridin-2-ylamino]-pyridin-2-yl}-methanol], the inhibition at 0.1 µM came to 92%. Take `CCCn1c(-c2ccc(Nc3ccc(C)nc3)cc2)nc2cccc(Cl)c21` [Example 78, [4-(7-Chloro-1-propyl-1H-benzoimidazol-2-yl)-phenyl]-(6-methyl-pyridin-3-yl)-amine]: the inhibition at 0.1 µM amounted to 99%. For `CCCn1c(-c2ccc(Nc3ccc(C)nc3)cc2)nc2ccc(F)cc21` [Example 79, [4-(6-Fluoro-1-propyl-1H-benzoimidazol-2-yl)-phenyl]-(6-methyl-pyridin-3-yl)-amine], the inhibition at 0.1 µM is 65%. Regarding `CCCn1c(-c2ccc(Nc3ccc(C)cc3)cc2)nc2cccc(Cl)c21` [Example 80, [4-(7-Chloro-1-propyl-1H-benzoimidazol-2-yl)-phenyl]-p-tolyl-amine], the inhibition at 0.1 µM was determined as 90%. Regarding `CCCn1c(-c2ccc(Nc3ccc(Cl)cc3)cc2)nc2cccc(Cl)c21` [Example 81, (4-Chloro-phenyl)-[4-(7-chloro-1-propyl-1H-benzoimidazol-2-yl)-phenyl]-amine], the inhibition at 0.1 µM amounted to 96%. The same measure, in the same setting: next, `CCCn1c(-c2ccc(Nc3ccc(OC)cc3)cc2)nc2cccc(Cl)c21` [Example 82, [4-(7-Chloro-1-propyl-1H-benzoimidazol-2-yl)-phenyl]-(4-methoxy-phenyl)-amine]: 88%. The same measure, in the same setting: then `CCCn1c(-c2ccc(Nc3ccc(C)cc3)cc2)nc2ccc(F)cc21` [Example 83, [4-(6-Fluoro-1-propyl-1H-benzoimidazol-2-yl)-phenyl]-p-tolyl-amine], with 52%; and `CCCn1c(-c2ccc(Nc3ccc(OC)cc3)nn2)nc2cccc(Cl)c21` [Example 86, [6-(7-Chloro-1-propyl-1H-benzoimidazol-2-yl)-pyridazin-3-yl]-(4-methoxy-phenyl)-amine], with 60%. Still for that read-out and setting: then `CCCn1c(-c2ccc(Nc3ccc(Cl)cc3)nn2)nc2cccc(Cl)c21` [Example 87, (4-Chloro-phenyl)-[6-(7-chloro-1-propyl-1H-benzoimidazol-2-yl)-pyridazin-3-yl]-amine], with 47%.

On to `CCCn1c(-c2ccc(Nc3ccc(C)nc3)nn2)nc2cccc(Cl)c21` [Example 88, [6-(7-Chloro-1-propyl-1H-benzoimidazol-2-yl)-pyridazin-3-yl]-(6-methyl-pyridin-3-yl)-amine], for which the inhibition at 0.1 µM was 97%.

Take `CCCn1c(-c2cnc(Nc3ccc(OC)cc3)nc2)nc2cccc(Cl)c21` [Example 90, [5-(7-Chloro-1-propyl-1H-benzoimidazol-2-yl)-pyrimidin-2-yl]-(4-methoxy-phenyl)-amine]: the inhibition at 0.1 µM was found to be 102%.

On to `CCCn1c(-c2cnc(Nc3ccc(Cl)cc3)nc2)nc2cccc(Cl)c21` [Example 91, (4-Chloro-phenyl)-[5-(7-chloro-1-propyl-1H-benzoimidazol-2-yl)-pyrimidin-2-yl]-amine], for which the inhibition at 0.1 µM was 100%. Take `CCCn1c(-c2cnc(Nc3ccc(C)nc3)nc2)nc2cccc(Cl)c21` [Example 92, [5-(7-Chloro-1-propyl-1H-benzoimidazol-2-yl)-pyrimidin-2-yl]-(6-methyl-pyridin-3-yl)-amine]: the inhibition at 0.1 µM was 99%. For the molecule `CCCn1c(-c2cnc(Nc3ccc(OC)cc3)nc2)nc2ccc(F)cc21` [Example 93, [5-(6-Fluoro-1-propyl-1H-benzoimidazol-2-yl)-pyrimidin-2-yl]-(4-methoxy-phenyl)-amine], the inhibition at 0.1 µM was found to be 34%.

As for `CCCn1c(-c2ccc(Nc3ccc(C)nc3)c(Cl)c2)nc2ccccc21` [Example 94, [2-Chloro-4-(1-propyl-1H-benzoimidazol-2-yl)-phenyl]-(6-methyl-pyridin-3-yl)-amine], the inhibition at 0.1 µM stood at 97%. Turning to `CCCn1c(-c2ccc(Nc3ccc(C)cc3)c(Cl)c2)nc2cccc(Cl)c21` [Example 95, [2-Chloro-4-(7-chloro-1-propyl-1H-benzoimidazol-2-yl)-phenyl]-p-tolyl-amine], the inhibition at 0.1 µM was determined as 63%. For the molecule `CCCn1c(-c2ccc(Nc3ccc(Cl)cc3)c(Cl)c2)nc2cccc(Cl)c21` [Example 96, [2-Chloro-4-(7-chloro-1-propyl-1H-benzoimidazol-2-yl)-phenyl]-(4-chloro-phenyl)-amine], the inhibition at 0.1 µM amounted to 85%. The same measure, in the same setting: then `CCCn1c(-c2ccc(Nc3ccc(OC)cc3)c(Cl)c2)nc2cccc(Cl)c21` [Example 97, [2-Chloro-4-(7-chloro-1-propyl-1H-benzoimidazol-2-yl)-phenyl]-(4-methoxy-phenyl)-amine], with 98%; and `CCCn1c(-c2ccc(Nc3ccc(C)nc3)c(Cl)c2)nc2cccc(Cl)c21` [Example 98, [2-Chloro-4-(7-chloro-1-propyl-1H-benzoimidazol-2-yl)-phenyl]-(6-methyl-pyridin-3-yl)-amine], with 103%.
